This note sets out measurements from patent US9126979B2, “Compounds for inhibiting the interaction of BCL2 with binding partners” (Novartis AG, priority 2011, dated 2015).

The target in test [1] is BCL-2 binding to biotinylated BAK peptide (Homo sapiens (Human), UniProt P10415). In words: SPR (Biacore) solution inhibition assay, BCL-2 binding to BAK peptide surface. Conditions: read-out: BCL2_SPR IC50 BAK. An excerpt: (§1) The present method includes utility of a Surface plasmon resonance (SPR)-based biosensor (Biacore™′ GE Healthcare, Uppsala, Sweden) to characterize BCL-2 inhibitors.
(§2) Biacore™ utilizes the phenomenon of surface plasmon resonance (SPR) to detect and measure binding interactions. In a typical Biacore experiment, one of the interacting molecules (ligand) is immobilized on a flexible dextran matrix while the interacting partner (analyte) is allowed to flow across that surface. A binding interaction results in an increase in mass on the sensor surface and a corresponding direct change in the refractive index of the medium in the vicinity of the sensor surface. Changes in refractive index or signal are recorded in resonance units (R.U.) Signal changes due to association and dissociation of complexes are monitored in a non-invasive manner, continuously and in real-time, the results of which are reported in the form of a sensorgram.
(§3) The SPR assay is configured to examine solution inhibition of BCL-2 binding to peptide derivatized sensor surfaces to generate IC50 values as a measure of inhibitor potency.
(§4) Biacore™ A100 (GE Healthcare, Uppsala, Sweden) was used to conduct all experiments reported herein. Sensor surface preparation and all interaction analyses experiments were performed at 25° C. Reagents were purchased from GE Healthcare. Running buffer containing 10 mM Hepes, pH7.4, 150 mM sodium chloride, 1.25 mM Dithiothreitol, 3% Dimethyl sulfoxide and 0.05% polysorbate 20 were utilized throughout all analyses.
(§5) Biotinylated BAK, BAD and NOXA peptides were diluted to 10 nM in running buffer and captured onto a sensor surface pre-derivatized with streptavidin (sensor chip SA) to peptide surface densities in the range 50-100 R.U. Peptide captured surfaces were blocked with 50004 PEO2-Biotin.
(§6) Interaction analyses were performed by first equilibrating each sample within a 6 point three fold compound dilution series in the range […] with 56 nM BCL-2 for one hour during instrument start-up procedures. Protein compound mixtures were then injected over each peptide surface in parallel for 60 seconds at a flow-rate of 30 μL/min. 56 nM BCL-2 control samples were also prepared and run at regular intervals during the assay. Surface regeneration was performed at the end of each analysis cycle by two 30 second injections of 10 mM Glycine, pH 2.5, 1M Sodium Chloride, 0.05% polysorbate 20. Samples and control compound samples were run in duplicate and controls are also run at regular intervals during the assay to monitor surface and assay performance.
(§7) Data analyses are carried out using Biacore™ A100 evaluation software v1.1 to validate assay quality. Binding level report points were used relative to BCL-2 control samples to calculate % inhibition values for each compound protein mixture. […] The range of data shown in table 1 represents the high and low IC50 values obtained from multiple experiments.
(SPR reads the build-up and loss of mass on a sensor chip optically.)

For test [2], the target named is BCL-2 binding to biotinylated BAD peptide (Homo sapiens (Human), UniProt P10415). In words: SPR (Biacore) solution inhibition assay, BCL-2 binding to BAD peptide surface. The conditions noted are these: read-out: BCL2_SPR IC50 BAD.
From the text: as §1, §2, §3, §4, §5, §6, §7

BCL-2 binding to biotinylated BAD peptide, sequence (P10415 whole entry): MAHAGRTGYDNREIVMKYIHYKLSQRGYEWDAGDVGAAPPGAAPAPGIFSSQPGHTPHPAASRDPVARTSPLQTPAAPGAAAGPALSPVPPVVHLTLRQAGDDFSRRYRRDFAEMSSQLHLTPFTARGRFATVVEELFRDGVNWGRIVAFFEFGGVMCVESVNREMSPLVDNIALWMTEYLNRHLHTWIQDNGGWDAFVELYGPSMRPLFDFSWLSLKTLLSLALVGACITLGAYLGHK
BCL-2 binding to biotinylated BAK peptide, sequence (P10415 whole entry): as above

The term IC50 denotes the concentration that inhibits the measured activity by half. On to `CCCCN(CCCC)C(=O)c1nn(-c2ccc(OCC(=O)OCC)cc2C(=O)N2Cc3ccccc3C[C@H]2CO)c(C)c1Cl` [Example 1, [4-(4-Chloro-3-dibutylcarbamoyl-5-methyl-pyrazol-1-yl)-3-((S)-3-hydroxymethyl-3,4-dihydro-1H-isoquinoline-2-carbonyl)-phenoxy]-acetic acid ethyl ester], for which the IC50 in test [1] is 363 to 405 nM; in test [2], 509 to 515 nM.
For `CCCCN(CCCC)C(=O)c1nn(-c2ccc(OCC(=O)O)cc2C(=O)N2Cc3ccccc3C[C@H]2CO)c(C)c1Cl` [Example 2, [4-(4-Chloro-3-dibutylcarbamoyl-5-methyl-pyrazol-1-yl)-3-((S)-3-hydroxymethyl-3,4-dihydro-1H-isoquinoline-2-carbonyl)-phenoxy]-acetic acid], in that order: 132 to 138 nM and 149 to 153 nM.
For `CCCCN(CCCC)C(=O)c1nn(-c2ccc(OCC(=O)Nc3ccccc3)cc2C(=O)N2Cc3ccccc3C[C@H]2CO)c(C)c1Cl` [Example 3, 4-Chloro-1-[2-((S)-3-hydroxymethyl-3,4-dihydro-1H-isoquinoline-2-carbonyl)-4-phenylcarbamoylmethoxy-phenyl]-5-methyl-1H-pyrazole-3-carboxylic acid dibutylamide], in that order: 406 to 437 nM and 433 to 477 nM.
The matching figures for `CCCCN(CCCC)C(=O)c1cc(C)n(-c2cc(OCC(=O)OCC)ccc2C(=O)N2Cc3ccccc3C[C@H]2CO)n1` [Example 4, [3-(3-Dibutylcarbamoyl-5-methyl-pyrazol-1-yl)-4-((S)-3-hydroxymethyl-3,4-dihydro-1H-isoquinoline-2-carbonyl)-phenoxy]-acetic acid ethyl ester]: 771 to 776 nM and 1170 to 1360 nM.
Take `CCCCN(CCCC)C(=O)c1cc(C)n(-c2cc(OCC(=O)O)ccc2C(=O)N2Cc3ccccc3C[C@H]2CO)n1` [Example 5, [3-(3-Dibutylcarbamoyl-5-methyl-pyrazol-1-yl)-4-((S)-3-hydroxymethyl-3,4-dihydro-1H-isoquinoline-2-carbonyl)-phenoxy]-acetic acid]: the IC50 in test [1] is 82.3 to 87.3 nM; in test [2], 98.9 to 105 nM.
On to `CCCCN(CCCC)C(=O)c1cc(C)n(-c2cc(OCC(=O)Nc3ccccc3)ccc2C(=O)N2Cc3ccccc3C[C@H]2CO)n1` [Example 6, 1-[2-((S)-3-Hydroxymethyl-3,4-dihydro-1H-isoquinoline-2-carbonyl)-5-phenylcarbamoylmethoxy-phenyl]-5-methyl-1H-pyrazole-3-carboxylic acid dibutylamide], for which the IC50 in test [1] was 1270 to 1300 nM; in test [2], 2090 to 2100 nM.
Turning to `CCCCN(CCCC)C(=O)c1cc(C)n(-c2cc(OCC(=O)OCc3ccccc3)ccc2C(=O)N2Cc3ccccc3C[C@H]2CO)n1` [Example 7, [3-(3-Dibutylcarbamoyl-5-methyl-pyrazol-1-yl)-4-((S)-3-hydroxymethyl-3,4-dihydro-1H-isoquinoline-2-carbonyl)-phenoxy]-acetic acid benzyl ester], the figures for the IC50 in test [1] and in test [2] were 1250 to 1320 nM and 1520 to 1560 nM, respectively.
For the molecule `CCCCN(CCCC)C(=O)c1cc(C)n(-c2cc(OCC(=O)Nc3ccccc3F)ccc2C(=O)N2Cc3ccccc3C[C@H]2CO)n1` [Example 8], the values for the IC50 in test [1] and in test [2] were 1700 to 1740 nM and 2880 to 3000 nM, respectively.
For `CCCCN(CCCC)C(=O)c1nn(-c2ccc(O)cc2C(=O)N2Cc3ccccc3C[C@H]2CO)c(C)c1Cl` [Example 9], in that order: 403 to 441 nM and 618 to 629 nM.
For `CCCCN(CCCC)C(=O)c1nn(-c2ccc(OC)cc2C(=O)N2Cc3ccccc3C[C@H]2CO)c(C)c1Cl` [Example 10], in that order: 815 to 969 nM and 1370 to 1690 nM.
For `CCCCN(CCCC)C(=O)c1cc(C)n(-c2cc(O)ccc2C(=O)N2Cc3ccccc3C[C@H]2CO)n1` [Example 11], in that order: 238 to 256 nM and 258 to 299 nM.
In the case of `CCCCN(CCCC)C(=O)c1cc(C)n(-c2cc(OC)ccc2C(=O)N2Cc3ccccc3C[C@H]2CO)n1` [Example 12], the IC50 was 267 to 299 nM in test [1] and 447 to 493 nM in test [2].
